Experiments:
[1] = target: T1, human TRPV1 (Homo sapiens, UniProt Q8NER1); assay: Capsaicin Activation Assay (FLIPR intracellular Ca2+, recombinant HEK293 cells); format: cell-based; details: recombinant HEK293 cells expressing hTRPV1; 50 nM capsaicin; read-out: human TRPV1 capsaicin IC50
T1 construct: expressed in transfected cells
Method: (i) Capsaicin Activation Assay
Dulbecco's modified Eagle medium (DMEM) (with 4.5 mg/mL glucose) and fetal bovine serum were obtained from Hyclone Laboratories, Inc. (Logan, Utah). Dulbecco's phosphate-buffered saline (DPBS) (with 1 mg/mL glucose and 3.6 mg/l Na pyruvate, without phenol red), L-glutamine, hygromycin B, and Lipofectamine® were obtained from Life Technologies (Grand Island, N.Y.). G418 sulfate was obtained from Calbiochem-Novabiochem Corp. (San Diego, Calif.). Capsaicin (8-methyl-N-vanillyl-6-nonenamide) was obtained from Sigma-Aldrich, Co. (St. Louis, Mo.). Fluo-4 AM (N-[4-[6-[(acetyloxy)-methoxy]-2,7-difluoro-3-oxo-3H-xanthen-9-yl]-2-[2-[2-[bis[2-[(acetyloxy)methoxy]-2-oxyethyl]amino]-5-methylphenoxy]ethoxy]phenyl]-N-[2-[(acetyloxy)methoxy]-2-oxyethyl]-glycine, (acetyloxy)methyl ester) was purchased from Molecular Probes (Eugene, Oreg.).
(§1) Expression plasmids encoding the hTRPV1 cDNA were transfected into HEK293 cells using Lipofectamine®. Forty-eight hours after transfection, the neomycin-resistant cells were selected with growth medium containing 800 μg/mL Geneticin (Life Technologies, formerly Gibco BRL). Surviving individual colonies were isolated and screened for TRPV1 activity. Cells expressing recombinant TRPV1 were maintained at 37° C. in DMEM containing 4 mM L-glutamine, 300 μg/mL G418 (Calbiochem) and 10% fetal bovine serum under a humidified 5% CO2 atmosphere.
The functional activity of compounds at the TRPV1 receptor was determined by measurement of intracellular Ca^2+ levels ([Ca^2+]i) using the Fluorescence Imaging Plate Reader (FLIPR)TETRA®. All compounds were tested over a 12-point one-third-log concentration range. Compound stocks, 10 mM, were prepared in DMSO, and diluted serially across a 384-well plate using a Bravo BenchCel workstation (Agilent Technologies, Santa Clara, Calif.). A stock concentration of capsaicin (10 mM) was made in DMSO, and diluted in DPBS to a final concentration of 200 nM (4×). On the day prior to the experiment, the recombinant HEK293 cells expressing human TRPV1 (hTRPV1) were removed from tissue culture flasks and plated in growth medium into black-walled clear-bottom 384-well Biocoat™ poly-D-lysine assay plates (BD Biosciences, Bedford, Mass.) using a Multidrop® dispenser (ThermoScientific, Waltham, Mass.). […] The plated cells were incubated for 90-120 minutes in the dark at room temperature and then test compound was added to each well. Three minutes later, 200 nM capsaicin (4×) solution was added to each well in an amount sufficient to provide a final assay volume of 80 μL and capsaicin concentration of 50 nM. Fluorescence readings were made at 1 to 5 second intervals over the course of the experimental run. The peak increase in relative fluorescence units (minus baseline) was calculated, and expressed as a percentage of the 50 nM capsaicin (control) response.

[2] = target: T1, human TRPV1; assay: Acid Activation Assay (pH 5.0, FLIPR intracellular Ca2+, recombinant HEK293 cells); format: cell-based; details: percentage of maximal pH 5.0-induced response remaining; HEK293 hTRPV1; max concentration 37.5 μM
Method: (ii) Acid Activation Assay
Dulbecco's modified Eagle's medium (DMEM) with 4.5 mg/mL D-glucose, fetal bovine serum, L-glutamine, and 2-morpholinoethanesulfonic acid (MES) were purchased from Sigma-Aldrich Co. (St. Louis, Mo.). […] The FLIPR® Calcium 4 assay kit was purchased from Molecular Devices (Sunnyvale, Calif.).
as §1
The functional activity of compounds at the TRPV1 receptor was determined by measurement of intracellular Ca^2+ levels ([Ca^2+]i) using the Fluorescence Imaging Plate Reader (FLIPR)TETRA®. […] Compound stocks, 10 mM, were prepared in DMSO, and diluted serially across a 384-well plate using a Bravo BenchCel workstation (Agilent Technologies, Santa Clara, Calif.). On the day prior to the experiment, the recombinant HEK293 cells expressing human TRPV1 (hTRPV1) were removed from tissue culture flasks and plated in growth medium into black-walled clear-bottom 384-well Biocoat™ poly-D-lysine assay plates (BD Biosciences, Bedford, Mass.) using a Multidrop® dispenser (ThermoScientific, Waltham, Mass.). […] The plated cells were incubated for 90-120 min in the dark at 25° C. The test compounds dissolved in DMSO were then added to the plates using an Agilent Bravo workstation (Agilent Technologies Inc., Santa Clara, Calif.). Three minutes later, a pH 5.0 solution was added to each well. Reagents were delivered at a rate of 40 μL/sec, and the final assay volume was 80 μL. Acidic pH solutions were prepared by titration of DPBS/MES with 1 N HCl. The intensity of the fluorescence was captured and digitally transferred to an interfaced PC. The maximum peak measured for the concentration range tested was used to calculate the corresponding peak increase in fluorescence over baseline (relative fluorescence units) which was expressed as the percentage (max % remain) of the maximal pH 5.0-induced response.

T1 sequence (Q8NER1 whole entry): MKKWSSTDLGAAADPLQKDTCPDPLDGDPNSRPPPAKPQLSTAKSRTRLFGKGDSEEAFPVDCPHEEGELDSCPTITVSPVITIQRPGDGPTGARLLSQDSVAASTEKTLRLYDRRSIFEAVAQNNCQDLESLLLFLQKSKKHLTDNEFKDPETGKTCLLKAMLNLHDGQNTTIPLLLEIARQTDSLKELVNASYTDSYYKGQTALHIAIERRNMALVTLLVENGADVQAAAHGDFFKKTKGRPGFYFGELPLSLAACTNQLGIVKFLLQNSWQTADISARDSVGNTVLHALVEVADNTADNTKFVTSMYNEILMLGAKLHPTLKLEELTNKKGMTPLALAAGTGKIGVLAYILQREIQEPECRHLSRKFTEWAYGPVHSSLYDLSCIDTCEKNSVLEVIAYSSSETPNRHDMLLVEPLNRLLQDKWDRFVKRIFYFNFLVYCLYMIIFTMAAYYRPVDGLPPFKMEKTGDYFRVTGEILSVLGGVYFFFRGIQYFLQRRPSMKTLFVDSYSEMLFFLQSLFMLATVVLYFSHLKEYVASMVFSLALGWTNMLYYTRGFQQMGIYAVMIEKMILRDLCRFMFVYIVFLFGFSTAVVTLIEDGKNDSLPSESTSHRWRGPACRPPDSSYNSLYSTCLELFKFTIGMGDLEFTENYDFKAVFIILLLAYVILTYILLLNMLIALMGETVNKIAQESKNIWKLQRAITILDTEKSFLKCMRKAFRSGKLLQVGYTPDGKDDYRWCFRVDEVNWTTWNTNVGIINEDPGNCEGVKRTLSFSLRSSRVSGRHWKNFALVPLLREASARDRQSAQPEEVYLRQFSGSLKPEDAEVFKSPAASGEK

IC50 [1] | human TRPV1 H+ (max % remain) [2] | Compound
270 nM | 60% | O=C(Nc1cccc2c1C[C@H](O)C2)N[C@@H]1CCc2cc(F)ccc21 [Example 92, 1-[(1R)-5-fluoro-2,3-dihydro-1H-inden-1-yl]-3-[(2R)-2-hydroxy-2,3-dihydro-1H-inden-4-yl]urea]
58 nM | 2% | CC1(C)C[C@@H](NC(=O)Nc2ccc(F)c3c2C[C@H](O)C3)c2ccc(C(F)(F)F)cc2O1 [Example 140, 1-[(4R)-2,2-dimethyl-7-(trifluoromethyl)-3,4-dihydro-2H-chromen-4-yl]-3-[(2S)-7-fluoro-2-hydroxy-2,3-dihydro-1H-inden-4-yl]urea]
540 nM | 2% | CC1(C)C[C@@H](NC(=O)Nc2ccc(F)c3c2C[C@H](O)C3)c2ccc(Cl)cc2O1 [Example 149, 1-[(4R)-7-chloro-2,2-dimethyl-3,4-dihydro-2H-chromen-4-yl]-3-[(2S)-7-fluoro-2-hydroxy-2,3-dihydro-1H-inden-4-yl]urea]
41000 nM | 57% | O=C(Nc1cccc2c1C[C@H](O)C2)N[C@H]1CCOc2cc(OC(F)(F)F)ccc21 [Example 93, 1-[(2R)-2-hydroxy-2,3-dihydro-1H-inden-4-yl]-3-[(4S)-7-(trifluoromethoxy)-3,4-dihydro-2H-chromen-4-yl]urea]
27 nM | 0% | CC1(C)C[C@@H](NC(=O)Nc2cccc3c2C[C@@H](O)C3)c2ccc(OC(F)(F)F)cc2O1 [Example 72, 1-[(4R)-2,2-dimethyl-7-(trifluoromethoxy)-3,4-dihydro-2H-chromen-4-yl]-3-[(2S)-2-hydroxy-2,3-dihydro-1H-inden-4-yl]urea]
430 nM | 87% | CC1(C)C[C@@H](NC(=O)Nc2cccc3c2C[C@H](O)C3)c2cccc(F)c2O1 [Example 46, 1-[(4R)-8-fluoro-2,2-dimethyl-3,4-dihydro-2H-chromen-4-yl]-3-[(2R)-2-hydroxy-2,3-dihydro-1H-inden-4-yl]urea]
170 nM | 46% | O=C(Nc1c(F)ccc2c1C[C@@H](O)C2)N[C@@H]1CC(CF)(CF)Oc2cc(C(F)(F)F)ccc21 [Example 95, 1-[(4R)-2,2-bis(fluoromethyl)-7-(trifluoromethyl)-3,4-dihydro-2H-chromen-4-yl]-3-[(2S)-5-fluoro-2-hydroxy-2,3-dihydro-1H-inden-4-yl]urea]
420 nM | 36% | O=C(Nc1ccc(F)c2c1C[C@@H](O)C2)N[C@@H]1CC(CF)(CF)Oc2cc(OC(F)(F)F)ccc21 [Example 159, 1-[(4R)-2,2-bis(fluoromethyl)-7-(trifluoromethoxy)-3,4-dihydro-2H-chromen-4-yl]-3-[(2R)-7-fluoro-2-hydroxy-2,3-dihydro-1H-inden-4-yl]urea]
24 nM | 67% | CCC1(CC)C[C@@H](NC(=O)Nc2cccc3c2C[C@H](O)C3)c2cc(F)ccc2O1 [Example 58, 1-[(4R)-2,2-diethyl-6-fluoro-3,4-dihydro-2H-chromen-4-yl]-3-[(2R)-2-hydroxy-2,3-dihydro-1H-inden-4-yl]urea]
110 nM | 4% | O=C(Nc1cccc2c1C[C@@H](O)C2)N[C@@H]1CC2(CCC2)Oc2ccc(F)cc21 [Example 80, 1-[(4R)-6-fluoro-3,4-dihydrospiro[chromene-2,1′-cyclobutan]-4-yl]-3-[(2S)-2-hydroxy-2,3-dihydro-1H-inden-4-yl]urea]
1000 nM | 92% | C[C@]1(CF)C[C@@H](NC(=O)Nc2ccc3c(c2)C(O)C3)c2ccc(Cl)cc2O1 (stereo partly drawn) [Example 131, 1-[(2R,4R)-7-chloro-2-(fluoromethyl)-2-methyl-3,4-dihydro-2H-chromen-4-yl]-3-(8-hydroxybicyclo[4.2.0]octa-1,3,5-trien-3-yl)urea]
130 nM | 61% | CC1(C)C[C@@H](NC(=O)Nc2ccc(F)c3c2C[C@@H](O)C3)c2ccc(C(F)(F)F)cc2O1 [Example 160, 1-[(4R)-2,2-dimethyl-7-(trifluoromethyl)-3,4-dihydro-2H-chromen-4-yl]-3-[(2R)-7-fluoro-2-hydroxy-2,3-dihydro-1H-inden-4-yl]urea]
4100 nM | 81% | O=C(Nc1cccc2c1C[C@H](O)C2)N[C@@H]1CCOc2ccccc21 [Example 47, 1-[(4R)-3,4-dihydro-2H-chromen-4-yl]-3-[(2R)-2-hydroxy-2,3-dihydro-1H-inden-4-yl]urea]
690 nM | 38% | O=C(Nc1ccc(F)c2c1C[C@@H](O)C2)N[C@@H]1CC2(CCC2)Oc2ccc(F)cc21 [Example 163, 1-[(4R)-6-fluoro-3,4-dihydrospiro[chromene-2,1′-cyclobutan]-4-yl]-3-[(2R)-7-fluoro-2-hydroxy-2,3-dihydro-1H-inden-4-yl]urea]
32 nM | 69% | CC(C)(C)c1ccc2c(c1)CC[C@H]2NC(=O)Nc1cccc2c1C[C@H](O)C2 [Example 50, 1-[(1R)-5-tert-butyl-2,3-dihydro-1H-inden-1-yl]-3-[(2R)-2-hydroxy-2,3-dihydro-1H-inden-4-yl]urea]
1200 nM | 50% | O=C(Nc1cccc2c1C[C@@H](O)C2)N[C@@H]1CC(CF)(CF)Oc2c(F)cccc21 [Example 87, 1-[(4R)-8-fluoro-2,2-bis(fluoromethyl)-3,4-dihydro-2H-chromen-4-yl]-3-[(2S)-2-hydroxy-2,3-dihydro-1H-inden-4-yl]urea]
43 nM | 58% | O=C(Nc1cccc2c1C[C@H](O)C2)N[C@@H]1CC(CF)(CF)Oc2cc(Br)ccc21 [Example 45, 1-[(4R)-7-bromo-2,2-bis(fluoromethyl)-3,4-dihydro-2H-chromen-4-yl]-3-[(2R)-2-hydroxy-2,3-dihydro-1H-inden-4-yl]urea]
850 nM | 70% | O=C(Nc1ccc(F)c2c1C[C@@H](O)C2)N[C@@H]1CCOc2cc(OC(F)(F)F)ccc21 [Example 168, 1-[(2R)-7-fluoro-2-hydroxy-2,3-dihydro-1H-inden-4-yl]-3-[(4R)-7-(trifluoromethoxy)-3,4-dihydro-2H-chromen-4-yl]urea]
120 nM | 40% | O=C(Nc1cccc2c1C[C@@H](O)C2)N[C@@H]1CC(CF)(CF)Oc2c(Cl)cccc21 [Example 75, 1-[(4R)-8-chloro-2,2-bis(fluoromethyl)-3,4-dihydro-2H-chromen-4-yl]-3-[(2S)-2-hydroxy-2,3-dihydro-1H-inden-4-yl]urea]

Compound | IC50 [1] | human TRPV1 H+ (max % remain) [2]
1-(5-chloro-2,3-dihydro-1H-inden-1-yl)-3-(7-fluoro-2-hydroxy-2,3-dihydro-1H-inden-4-yl)urea [Example 174] | 420 nM | 29%

From patent publication US8859584B2, “TRPV1 antagonists” (AbbVie Inc., priority 2011, dated 2014)
